Data on eleven compounds can be found in US10239878B2, “Macrocyclic ligands with pendant chelating moieties and complexes thereof” (LUMIPHORE, INC., priority 2016, dated 2019).

Data set [1] is described as follows: 250 mM DTPA competition experiments (kinetic stability of Eu complexes). It is filed as physicochemical. The text has this: From these experiments, it is clear that 43⋅Eu is remarkably stable to a wide range of competitive metal ions and chelators. The competitor concentrations mentioned above are a good way to assess the kinetic stability of the complex in various assay conditions. DTPA is an exceptionally good ligand for lanthanide ions, and thus it is not typically used in practical assays. However, DTPA competition offers an excellent way to benchmark the kinetic stability of the complexes reported here. […] In order to compare the kinetic stability of the complexes reported here, a 750 mM stock solution (25 mL) of DTPA was prepared by dissolving DTPA (7.375 g, 18.75 mmol) into water (20 mL) containing potassium hydroxide (5.26 g, 93.75 mmol). The pH of the DTPA solution was adjusted to pH=7.6 by addition of concentrated hydrochloric acid, and then the solution was diluted to a final volume of 25 mL to give a 750 mM DTPA stock solution at pH=7.6. HPLC purified europium complexes of 16, 29, 33, 40, and 43 were separately diluted to 11 μM in TBS buffer, pH=7.6. For each DTPA competition experiment, 1 mL of the 750 mM DTPA solution was added to 2 mL of the 11 μM europium complex solution. The luminescence at 612 nm (365 nm excitation) was monitored for these five separate solutions containing 250 mM DTPA and 7.1 μM of each europium complex as a function of time.

Data set [2] can be described thus: Europium titration experiments for determining extinction coefficients. As to conditions: for ε at λmax (starred values): assumed equal to those measured by titration for 16 · Eu or 43 · Eu; for extinction coefficient: UV-vis titration with europium chloride, TBS buffer pH 7.6, at lambda max; for lambda max: UV-vis titration, TBS buffer; for ε at λmax: by europium titration, TBS buffer pH 7.6. The data set is classed as physicochemical. The procedure:
In order to determine accurate extinction coefficients for 16 and 16⋅Eu, titration experiments using europium chloride as the titrant were performed. Europium chloride hexahydrate (13.22 mg, 0.03608 mmol) was dissolved into 5 mM citrate buffer (pH=4) using a 100 mL volumetric flask to give a 0.3608 mM europium chloride solution, which was then titrated into a 0.5 mL solution of 16 in TBS buffer (Tris-buffered saline, 50 mM Tris, 150 mM NaCl, pH=7.6) using 5 μL aliquots. The UV-vis spectra were adjusted for the increase in solvent volume due to each injection. The results of the UV-vis titration are plotted in FIG. 3.
The volume of europium chloride corresponds to 16.70 nmol of europium, meaning the starting concentration of ligand 16 was 33.40 μM. […] These absorbance and concentration values yield extinction coefficients of 13,600 M^−1 cm^−1 and 14,300 M^−1 cm^−1 for the ligand 16 and the complex 16⋅Eu respectively.
In order to determine accurate extinction coefficients for 43 and 43⋅Eu, titration experiments using europium chloride as the titrant were performed. Europium chloride hexahydrate (47.58 mg, 0.1299 mmol) was dissolved into 50 mM citrate buffer (pH=4) using a 10 mL volumetric flask to give a 12.99 mM europium chloride solution, which was then transferred to a 100 mL volumetric flask and diluted 1:10 with water. The resulting 1.299 mM europium chloride solution (in 5 mM citrate buffer) was then titrated into a 1 mL solution of 43 in TBS buffer using 5 μL aliquots. The UV-vis spectra were adjusted for the increase in solvent volume due to each injection. The results of the UV-vis titration are plotted in FIG. 4.
The volume of europium chloride corresponds to 47.46 nmol of europium, meaning the starting concentration of ligand 43 was 47.46 μM. […] These absorbance and concentration values yield extinction coefficients of 13,000 M^−1 cm^−1 and 12,800 M^−1 cm^−1 for the ligand and complex respectively.
Titration of ligand 43 was also performed by luminescence (FIG. 5), monitoring the europium signal at 612 nm upon photoexcitation of the solution at 340 nm. The ligand solution used for the UV-vis titration of 43 mentioned above was first diluted 1:10 in TBS buffer. Similarly, the 1.299 mM stock europium solution was separately diluted 1:10 with water. […] The 32.99 μL equivalence point gives extinction coefficients of 14,400 M^−1 cm^−1 at 383 nm and 14,200 M^−1 cm^−1 at 357 nm for 43 and 43⋅Eu respectively. Averaging the values from both UV-vis and luminescence titration experiments of 43 yields extinction coefficients of 13,700 M^−1 cm^−1 at 383 nm and 13,500 M^−1 cm^−1 at 357 nm for 43 and 43⋅Eu respectively.

The nature of data set [3]: Photophysical characterization of Eu complexes (UV-vis absorption, quantum yield, lifetime). The data set is classed as physicochemical. As to conditions: for ε260/ε at λmax / ε280/ε at λmax / λmax / Φtotal at 365 nm excitation: TBS buffer; for ε260/ε at λmax / ε280/ε at λmax / λmax: pH 7.6; for Φtotal at 365 nm excitation: quinine sulfate as quantum yield standard; for Lifetime: luminescence, HPLC purified Eu complexes. The protocol: The europium complexes of ligands 16, 29, 33, 40, and 43 were prepared by separately dissolving each ligand (2 mg) into methanol (200 μL). Excess europium chloride hexahydrate (˜5 equivalents) was dissolved in methanol (200 μL) and the full volume was added to each of the ligand solutions. The solvent was removed, and the residue was dissolved into DMF (50 μL). The europium complexes were then purified by semi-prep HPLC on an Agilent 1260 Infinity instrument using an Eclipse XDB-C18 column (5 μm, 9.4×250 mm). The mobile phase was 10 to 30% acetonitrile in water containing 0.1% trifluoroacetic acid. The volatiles were removed from the HPLC eluents under vacuum, and the residues were separately dissolved into methanol (500 μL) to give methanolic stock solutions of each europium complex with greater than 98% purity. A few drops of these methanolic solutions were evaporated to dryness, and then the residue was dissolved into TBS buffer at a concentration of ca. 3 μM to make aqueous stock solutions (20 mL) with an absorbance of 0.05 (1 cm path length) at 365 nm. Five dilutions (1/6, 2/6, 3/6, 4/6, and 5/6) were made from these aqueous stock solutions to yield six samples with evenly spaced concentrations (3 mL volume each). Quinine sulfate dissolved in 0.05 M sulfuric acid was similarly diluted to a final absorbance of 0.05 at 365 nm, and this solution was similarly (1/6, 2/6, 3/6, 4/6, and 5/6) diluted to afford six quinine sulfate reference samples of evenly spaced concentration. Quinine sulfate in 0.05 M sulfuric acid was used as the quantum yield standard (Φ=0.508). By measuring the absorbance and luminescence of these dilute solutions, the quantum yields of the new Eu complexes were determined. A 5 cm path-length quartz cell was used to measure the absorbance of these dilute solutions in order to improve the UV-vis signal-to-noise. Steady state photoluminescence measurements were collected in a 1 cm fluorescence cuvette at 365 nm excitation wavelength, 1 nm resolution, 10 nm excitation slit width, 1 nm emission slit width, and 0.2 sec integration time on an instrument that has been described elsewhere (D'Aléo, A.; Moore, E. G.; Szigethy, G.; Xu, J.; Raymond, K. N. Inorg. Chem. 2009, 48, 9316.). Absorption spectra were measured at 1 nm resolution, and the absorbance of each sample was taken as the average absorbance measured from 360-370 nm to reflect the 10 nm excitation slit width used for luminescence measurements. The data derived from these experiments, and from the titration experiments in example 11 are tabulated below.

For data set [4] the following is noted: Thorium(IV) complexes; ligand denticity bi- to deca-dentate; cited from earlier work.
The conditions of data set [5]: in 0.05 M sulfuric acid; cited from earlier work.

Counter-ions that a name gives are not always drawn. Marks after values point to notes of the source that are not given here.

Regarding `NCCCC[C@H]1CNC(=O)c2ccc(c(=O)n2[O-])C(=O)NCCCN(C(=O)c2cccc(=O)n2[O-])CCCCN(C(=O)c2cccc(=O)n2[O-])CCCNC(=O)c2ccc(n([O-])c2=O)C(=O)N1.[Eu+3]` [29⋅Eu], in data set [1], the “kinetic stability relative to 43⋅Eu to challenge by DTPA” value is “at least an order of magnitude”; the “kinetic stability relative to m-tetrahydrofurandiamine-based macrocycles (40⋅Eu and 43⋅Eu)” value is given as approximately 5 ×. In addition, the “ε at λmax (starred values)” value in data set [2] is 14,300* M^−1cm^−1. In data set [3], the “ε260/ε at λmax” value is on record as 1.42, the “ε280/ε at λmax” value is reported as 1.18, the λmax is 363 nm and the “Φtotal at 365 nm excitation” value was 29.8%. In data set [3], this compound had a Lifetime of 716 μs.
In the case of `O=C1NCCCN(C(=O)c2cccc(=O)n2[O-])CCCCN(C(=O)c2cccc(=O)n2[O-])CCCNC(=O)c2ccc(n([O-])c2=O)C(=O)N[C@@H]2COC[C@@H]2NC(=O)c2ccc1c(=O)n2[O-].[Eu+3]` [40⋅Eu], the “ε at λmax (starred values)” value in data set [2] is reported as 13,500* M^−1cm^−1. Besides, in data set [3], the “ε260/ε at λmax” value turned out to be 1.51, the “ε280/ε at λmax” value is reported as 1.19, the λmax came out at 357 nm and the “Φtotal at 365 nm excitation” value is reported as 28.2%. In data set [3], this compound yielded a Lifetime of 729 μs.
For the compound `NCCOCCNC(=O)C1CCCN(C(=O)c2cccc(=O)n2[O-])CCCNC(=O)c2ccc(n([O-])c2=O)C(=O)NCCNC(=O)c2ccc(c(=O)n2[O-])C(=O)NCCCN1C(=O)c1cccc(=O)n1[O-].[Eu+3]` (stereo not drawn) [33⋅Eu], the “kinetic stability relative to m-tetrahydrofurandiamine-based macrocycles (40⋅Eu and 43⋅Eu)” value in data set [1] is recorded as approximately 5 ×. Further, in data set [1] (33⋅Eu versus 16⋅Eu, 43⋅Eu versus 40⋅Eu), the “reduction in kinetic stability upon introduction of the spermine-based sidearm” value is “two fold”. For the same compound, the “ε at λmax (starred values)” value in data set [2] is reported as 14,300* M^−1cm^−1. In data set [3], the “ε260/ε at λmax” value is reported as 1.40, the “ε280/ε at λmax” value is reported as 1.14, the λmax was 363 nm and the “Φtotal at 365 nm excitation” value is reported as 30.0%. Also, in data set [3], the Lifetime is 723 μs.
`O=C(O)CN(CCO)CCN(CC(=O)O)CC(=O)O` [HEDTA]: the “Log K1” value in data set [4] is listed as 18.5.
Turning to `O=C1NCCCN(C(=O)c2cccc(=O)n2[O-])CCCCN(C(=O)c2cccc(=O)n2[O-])CCCNC(=O)c2ccc(n([O-])c2=O)C(=O)NCCNC(=O)c2ccc1c(=O)n2[O-].[Eu+3]` [16⋅Eu], in data set [2], the extinction coefficient is listed as 14,300 M^−1 cm^−1, the lambda max is given as 361 nm and the “ε at λmax” value is recorded as 14,300 M^−1cm^−1. Moreover, in data set [3], the “ε260/ε at λmax” value is given as 1.40, the “ε280/ε at λmax” value was found to be 1.12, the λmax was 361 nm and the “Φtotal at 365 nm excitation” value amounted to 30.9%. The compound further came in with a Lifetime in data set [3] of 716 μs.
With `O=C(O)CN(CCN(CC(=O)O)CC(=O)O)CC(=O)O` [EDTA], in data set [4], the “Log K1” value was 25.3.
For the compound `O=C(O)CN(CCN(CCN(CC(=O)O)CC(=O)O)CC(=O)O)CCN(CC(=O)O)CC(=O)O` [TTHA], the “Log K1” value in data set [4] is 31.9.
`O=C1NCCCN(C(=O)c2cccc(=O)n2O)CCCCN(C(=O)c2cccc(=O)n2O)CCCNC(=O)c2ccc(n(O)c2=O)C(=O)NCCNC(=O)c2ccc1c(=O)n2O` [Compound 16]: in data set [2], the extinction coefficient is recorded as 13,600 M^−1 cm^−1, the lambda max is on record as 382 nm and the “ε at λmax” value is recorded as 13,600 M^−1cm^−1. In data set [3], the “ε260/ε at λmax” value came to 1.98, the “ε280/ε at λmax” value was 1.27 and the λmax came out at 382 nm.
With `C=C[C@H]1C[N@@]2CC[C@H]1C[C@H]2[C@H](O)c1ccnc2ccc(OC)cc12` [Quinine sulfate], in data set [5], the “quantum yield standard Φ” value is given as 0.508.
`CC(=O)CC(C)=O` [Acac]: the “Log K1” value in data set [4] is 7.85.
Take `O=C(O)CN(CC(=O)O)CC(=O)O` [NTA]: in data set [4], the “Log K1” value is 16.9.
